Converted amounts (≈) assume the structure as drawn. The source made the active and inactive calls. The rule behind the calls is not given here.
Assays:
[1] = molecular target: T1, NAD-dependent protein deacylase sirtuin-6 (Homo sapiens, UniProt Q8N6T7); experiment: Inhibition of human recombinant SIRT6 assessed as reduction in NAD+-dependent deacetylase activity at 200 uM using Arg-His-Lys-Lys(epsilon-acetyl)-AMC substrate and NAD+ by fluorescence based assay
[2] = molecular target: T1, NAD-dependent protein deacylase sirtuin-6; experiment: Inhibition of SIRT6 in human PBMC cells assessed as increase in H3K9 acetylation at 200 uM incubated for 24 hrs by immunoblotting relative to untreated control; type: cell-based
[3] = molecular target: T1, NAD-dependent protein deacylase sirtuin-6; experiment: Inhibition of SIRT6 in human PBMC cells assessed as reduction in staphylococcal enterotoxin B-induced cell proliferation at 200 uM incubated for 120 hrs by ATPlite assay; type: cell-based
BXPC-3 = experiment: Toxicity in human BxPC3 cells assessed as reduction in cell viability at 30 uM incubated for 72 hrs by Cell-titer96 aqueous one assay; type: cell-based; conditions: bxpc-3, 72 h
[4] = molecular target: T1, NAD-dependent protein deacylase sirtuin-6; experiment: Inhibition of SIRT6 in human BxPC3 cells assessed as potentiation of gemcitabine-induced cytotoxicity at 30 uM incubated for 72 hrs by Cell-titer96 aqueous one assay; type: cell-based
[5] = molecular target: T1, NAD-dependent protein deacylase sirtuin-6; experiment: Inhibition of SIRT6 in human BxPC3 cells assessed as increase in 2-NBDG uptake at 100 uM incubated for 18 hrs by glucose uptake assay; type: cell-based
[6] = molecular target: T1, NAD-dependent protein deacylase sirtuin-6; experiment: Inhibition of SIRT6 in human PBMC cells assessed as reduction in staphylococcal enterotoxin B-induced cell proliferation by measuring CFSE signal level at 200 uM incubated for 120 hrs by CFSE staining based flow FACS assay (reference value: 65%); set-up: scale not given: the % may be the effect or the level left
[7] = molecular target: T2, NAD-dependent protein deacetylase sirtuin-1 (Homo sapiens, UniProt Q96EB6); experiment: Inhibition of human recombinant SIRT1 assessed as reduction in NAD+-dependent deacetylase activity using Arg-His-Lys-Lys(epsilon-acetyl)-AMC substrate and NAD+ by fluorescence based assay
T2 sequence (Q96EB6 whole entry): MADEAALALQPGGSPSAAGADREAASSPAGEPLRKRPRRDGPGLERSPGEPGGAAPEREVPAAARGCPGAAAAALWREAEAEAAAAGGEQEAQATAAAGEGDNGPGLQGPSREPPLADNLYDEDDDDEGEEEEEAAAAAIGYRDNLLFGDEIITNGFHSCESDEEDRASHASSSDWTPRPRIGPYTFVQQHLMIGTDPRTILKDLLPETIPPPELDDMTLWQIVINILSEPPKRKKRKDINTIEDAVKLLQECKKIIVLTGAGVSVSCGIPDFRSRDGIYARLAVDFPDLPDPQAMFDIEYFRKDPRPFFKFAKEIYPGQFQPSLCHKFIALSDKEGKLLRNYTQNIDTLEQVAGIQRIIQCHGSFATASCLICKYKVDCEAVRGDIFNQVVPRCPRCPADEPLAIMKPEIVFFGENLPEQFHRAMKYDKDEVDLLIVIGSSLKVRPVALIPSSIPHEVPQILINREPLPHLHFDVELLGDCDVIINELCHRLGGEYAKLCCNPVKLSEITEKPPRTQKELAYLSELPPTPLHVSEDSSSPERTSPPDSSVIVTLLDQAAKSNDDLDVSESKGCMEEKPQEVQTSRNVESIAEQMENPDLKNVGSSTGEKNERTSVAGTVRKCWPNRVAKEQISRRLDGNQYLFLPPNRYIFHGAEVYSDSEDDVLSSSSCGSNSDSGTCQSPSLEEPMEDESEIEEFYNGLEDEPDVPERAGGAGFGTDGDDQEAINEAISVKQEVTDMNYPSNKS

[8] = molecular target: T1, NAD-dependent protein deacylase sirtuin-6; experiment: Inhibition of SIRT6 in human PBMC cells assessed as reduction in PHA-induced cell proliferation by measuring CFSE signal level at 200 uM incubated for 120 hrs by CFSE staining based flow FACS assay (reference value: 66%); set-up: scale not given: the % may be the effect or the level left
[9] = molecular target: T1, NAD-dependent protein deacylase sirtuin-6; experiment: Competitive inhibition of human recombinant SIRT6 assessed as reduction in NAD+-dependent deacetylase activity at 50 uM using fixed Arg-His-Lys-Lys(epsilon-acetyl)-AMC substrate and varying NAD+ by fluorescence based assay based double-reciprocal plot
[10] = molecular target: T1, NAD-dependent protein deacylase sirtuin-6; experiment: Inhibition of SIRT6 in human BxPC3 cells assessed as reduction in TNFalpha production at 100 uM incubated for 18 hrs by ELISA method; type: cell-based
[11] = molecular target: T1, NAD-dependent protein deacylase sirtuin-6; experiment: Inhibition of SIRT6 in human PBMC cells assessed as increase in H3K56 acetylation at 200 uM incubated for 24 hrs by immunoblotting relative to untreated control; type: cell-based
[12] = molecular target: T1, NAD-dependent protein deacylase sirtuin-6; experiment: Competitive inhibition of human recombinant SIRT6 assessed as reduction in NAD+-dependent deacetylase activity at 50 uM using varying Arg-His-Lys-Lys(epsilon-acetyl)-AMC substrate and fixed NAD+ by fluorescence based assay based double-reciprocal plot
[13] = molecular target: T1, NAD-dependent protein deacylase sirtuin-6; experiment: Inhibition of SIRT6 in human PBMC cells assessed as reduction in PHA-induced cell proliferation at 200 uM incubated for 120 hrs by ATPlite assay; type: cell-based
[14] = molecular target: T1, NAD-dependent protein deacylase sirtuin-6; experiment: Inhibition of SIRT6 in human BxPC3 cells assessed as increase in H3K9 acetylation by immunoblotting relative to untreated control; type: cell-based; set-up: concentration or dose not given beside the values
[15] = molecular target: T3, NAD-dependent protein deacetylase sirtuin-2 (Homo sapiens, UniProt Q8IXJ6); experiment: Inhibition of human recombinant SIRT2 assessed as reduction in NAD+-dependent deacetylase activity using Arg-His-Lys-Lys(epsilon-acetyl)-AMC substrate and NAD+ by fluorescence based assay
T3 sequence (Q8IXJ6 whole entry): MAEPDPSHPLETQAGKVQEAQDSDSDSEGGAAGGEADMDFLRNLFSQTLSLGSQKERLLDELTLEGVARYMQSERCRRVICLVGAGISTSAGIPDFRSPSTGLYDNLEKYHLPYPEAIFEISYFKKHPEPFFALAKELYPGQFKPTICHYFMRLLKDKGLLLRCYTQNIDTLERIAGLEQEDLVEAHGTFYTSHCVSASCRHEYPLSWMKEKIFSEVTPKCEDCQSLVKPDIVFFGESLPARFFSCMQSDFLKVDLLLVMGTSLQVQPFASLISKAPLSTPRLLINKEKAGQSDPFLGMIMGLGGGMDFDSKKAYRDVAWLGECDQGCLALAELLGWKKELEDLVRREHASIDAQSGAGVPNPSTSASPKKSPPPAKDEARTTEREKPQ

Homo sapiens [16] = species on record: Homo sapiens; experiment: Selectivity index, ratio of IC50 for human recombinant SIRT1 to IC50 for human recombinant SIRT6
Homo sapiens [17] = species on record: Homo sapiens; experiment: Selectivity index, ratio of IC50 for human recombinant SIRT2 to IC50 for human recombinant SIRT6
[18] = Intrinsic aqueous solubility in 23% Kleptose HPB; type: physicochemical
[19] = Fraction unbound in human plasma at 1 ug/ml by rapid equilibrium dialysis; type: ADME, cell-free
[20] = Partition coefficient, log P of the compound; type: physicochemical; conditions: octanol/water
[21] = Fraction unbound in mouse plasma at 1 ug/ml by rapid equilibrium dialysis; type: ADME, cell-free
[22] = Intrinsic aqueous solubility in all polymers solutions; type: physicochemical
[23] = Ionisation constant, pKa of the compound; type: physicochemical
[24] = Intrinsic aqueous solubility in surfactant in 9% TPGS; type: physicochemical; conditions: 9% TPGS surfactant solution
[25] = Fraction unbound in mouse plasma at 10 ug/ml by rapid equilibrium dialysis; type: ADME, cell-free
[26] = molecular target: T1, NAD-dependent protein deacylase sirtuin-6; experiment: Inhibition of human recombinant SIRT6 assessed as reduction in NAD+-dependent deacetylase activity using Arg-His-Lys-Lys(epsilon-acetyl)-AMC substrate and NAD+ by fluorescence based assay
[27] = Fraction unbound in human plasma at 10 ug/ml by rapid equilibrium dialysis; type: ADME, cell-free
[28] = Intrinsic aqueous solubility in PBS at pH 7.4; type: physicochemical
[29] = Stability in mouse plasma assessed as half life at 1 uM at 37 degC measured after 4 hrs; type: ADME, cell-free

T1 sequence (Q8N6T7 whole entry): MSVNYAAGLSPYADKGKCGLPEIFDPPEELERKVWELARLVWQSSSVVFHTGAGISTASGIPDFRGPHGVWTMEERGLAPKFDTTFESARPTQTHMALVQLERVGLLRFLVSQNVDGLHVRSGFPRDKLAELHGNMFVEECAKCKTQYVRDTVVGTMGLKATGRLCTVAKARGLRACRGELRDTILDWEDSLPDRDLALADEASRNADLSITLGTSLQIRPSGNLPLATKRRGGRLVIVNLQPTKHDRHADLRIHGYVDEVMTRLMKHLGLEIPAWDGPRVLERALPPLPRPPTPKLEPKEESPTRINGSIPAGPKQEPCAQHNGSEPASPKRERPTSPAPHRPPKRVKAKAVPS

O=C(Nc1ccc(O)c(C(=O)O)c1)c1ccc(NC(=O)C2CC2)cc1
inhibition [1]: 50%

O=C(Nc1ccc(O)c(C(=O)O)c1)c1cccc(N2C(=O)CCS2(=O)=O)c1
inhibition [1]: 54%

O=C(Cc1cccs1)Nc1cccc(C(=O)Nc2cccc(C(=O)O)c2)c1
inhibition [1]: inactive

O=C(O)c1cccc(NC(=O)c2cccc(NC(=O)C3CCCO3)c2)c1 (stereo not given)
inhibition [1]: inactive

CC(=O)Nc1cccc(NS(=O)(=O)c2cc(C(=O)O)c(O)cc2C)c1
inhibition [1]: inactive

Cc1cc(O)c(C(=O)O)cc1S(=O)(=O)Nc1ccc(NC(=O)NCC2CCCO2)cc1 (stereo not given)
inhibition [1]: 17%

O=C(Nc1ccc(C(=O)O)c(O)c1)c1ccc(NC(=O)c2ccco2)cc1
inhibition [2]: Active | inhibition [3]: Active | inhibition [1]: 100% | Activity (BXPC-3): Non-Toxic | inhibition [4]: Active | fold change (FC) [5]: 1.7 | Activity [6]: 27% | IC50 [7]: 599 µM | Activity [8]: 29% | inhibition [9]: Active | inhibition [10]: 80% | inhibition [11]: Active | inhibition [12]: Active | inhibition [13]: Active | fold change (FC) [14]: 2.5 | IC50 [15]: 482 µM

O=C(Nc1ccc(O)c(C(=O)O)c1)c1cccc(NC(=O)c2ccco2)c1
fold change (FC) [5]: 1.3 | Ratio IC50 (Homo sapiens [16]): 17.7 | Ratio IC50 (Homo sapiens [17]): 8.44 | inhibition [10]: 52% | fold change (FC) [14]: 2.1

Cc1c(NC(=O)c2cccc(NC(=O)c3ccco3)c2)cccc1C(=O)O
inhibition [1]: 18%

O=C(Nc1ccc(O)cc1C(=O)O)c1ccc(N2C(=O)c3ccccc3C2=O)cc1
inhibition [1]: 100% | solubility [18]: 50 µg/mL (≈ 124 µM) | fraction unbound at 1 ug/ml [19]: < 0.001 | logP [20]: 3.6 | fraction unbound at 1 ug/ml [21]: < 0.01 | fold change (FC) [5]: 1.1 | IC50 [7]: 424 µM | solubility [22]: 5 µg/mL (≈ 12.4 µM) | Ratio IC50 (Homo sapiens [16]): 21.2 | pKa [23]: 3.22 | solubility [24]: 50 µg/mL (≈ 124 µM) | Ratio IC50 (Homo sapiens [17]): 16.6 | inhibition [10]: 13% | fraction unbound at 10 ug/ml [25]: < 0.01 | IC50 [26]: 20 µM | fraction unbound at 10 ug/ml [27]: < 0.001 | solubility [28]: 70 µg/mL (≈ 174 µM) | half-life at 1 µM [29]: 7.7 h | fold change (FC) [14]: 0.9 | IC50 [15]: 333 µM

O=C(Nc1ccc(C(=O)O)c(O)c1)c1cccc(N2C(=O)CCS2(=O)=O)c1
inhibition [1]: 44%

O=C(O)c1cccc(NC(=O)c2cccc(NC(=O)c3cccs3)c2)c1
inhibition [1]: 39%

CCC(=O)Nc1ccc(C(=O)Nc2ccc(C(=O)O)c(O)c2)cc1
inhibition [1]: 70%

O=C(O)c1cc(NC(=O)c2cccc(N3C(=O)CCC3=O)c2)cc(C(=O)O)c1
inhibition [1]: 68%

CC(=O)Nc1ccc(NS(=O)(=O)c2ccc(O)c(C(=O)O)c2)cc1
inhibition [1]: inactive

O=C(O)c1cccc(NC(=O)c2cccc(N3C(=O)CCS3(=O)=O)c2)c1
inhibition [1]: 5%

O=C(Nc1ccc(C(=O)O)c(O)c1)c1ccc(N2C(=O)c3ccccc3C2=O)cc1
inhibition [1]: 17%

O=C(Nc1ccc(C(=O)O)c(O)c1)c1cccc(NC(=O)c2ccco2)c1
inhibition [1]: 62%

Cc1ccc(C(=O)O)cc1NC(=O)c1cccc(NC(=O)c2ccco2)c1
inhibition [1]: 4%

O=C(Nc1ccc(C(=O)O)c(O)c1)c1ccc(N2C(=O)CCS2(=O)=O)cc1
inhibition [1]: 100%

CCC(CC)C(=O)Nc1cccc(C(=O)Nc2cccc(C(=O)O)c2)c1
inhibition [1]: 54%

O=C(Nc1ccc(O)c(C(=O)O)c1)c1ccc(N2C(=O)CCS2(=O)=O)cc1
inhibition [1]: 89%

Source: ChEMBL document CHEMBL4177587, “SIRT6 inhibitors with salicylate-like structure show immunosuppressive and chemosensitizing effects” (Bioorg Med Chem, 2017)
